From article PMC9232501, “Results of the phase I CCTG IND.231 trial of CX-5461 in patients with advanced solid tumors enriched for DNA-repair deficiencies” (Nature Communications, 2022)
Where “and” joins values, the source holds several entries; their conditions need not be identical. Equal values may be shown once.

What was measured:
[1] = test system: BRCA2 and BRCA1-deficient tumor models; settings: in vitro and in vivo, independently of RNA polymerase 1 inhibition; cited from earlier work
[2] = Plasma pharmacokinetics of CX-5461 (HPLC-MS/MS, non-compartmental); assay type: in vivo, human; parameters: Day 1 CX-5461 plasma concentration: unit not given here; settings: for Day 1 Cmax / Day 8 or 15 Cmax / Day 1 AUC / Day 8 or 15 AUC: one patient per datapoint; for Day 1 Cmax / Day 8 or 15 Cmax: in ng/mL; for Day 1 AUC / Day 8 or 15 AUC: in ng·h/mL (unit assumed)
Method: PK was assessed on all patients in the escalation phase. Venous blood samples were collected on treatment days 1, 8, and 15 (where applicable), and plasma CX-5461 was analyzed with HPLC-MS/MS (schedule details in Supplementary Table 3). PK parameters were calculated with non-compartmental methods. […] The protocol was amended to allow submission of a ctDNA sample and in a further amendment, a mandatory skin biopsy (pre-treatment and cycle 1 day 15) to study phototoxic effects. Fresh tumor biopsies were optional.
Supplementary Table 3. Schedule for collection of CX5461 pharmacokinetics
During infusion at 30 minutes
Immediately post infusion then:
C1D1 30 minutes post infusion
C1D2 24 hours post infusion
C1D3 48 hours post infusion
C1D4 72 hours post infusion
Immediately post infusion then
C1D15 30 minutes post infusion
C1D16 24 hours post infusion
In addition to the specific time points listed above, additional samples were to be collected from […]

## Cc1cnc(CNC(=O)c2c(=O)c3ccc(N4CCCN(C)CC4)nc3n3c2sc2ccccc23)cn1 [CX-5461]
[1]
  synthetic lethality: synthetically lethal
[2]; 50 mg/m2, Time 0, individual patients
  Day 1 CX-5461 plasma concentration: 623
[2]; 50 mg/m2, Time 24, individual patients
  Day 1 CX-5461 plasma concentration: 40.3 and 34
[2]; 50 mg/m2, Time 48, individual patients
  Day 1 CX-5461 plasma concentration: 40 and 22.9
[2]; 50 mg/m2, Time 72, individual patients
  Day 1 CX-5461 plasma concentration: 16.6 and 12.9
[2]; 100 mg/m2, Time 24, individual patients
  Day 1 CX-5461 plasma concentration: 53.2 and 76.4 and 34.5 and 70.1
[2]; 100 mg/m2, Time 48, individual patients
  Day 1 CX-5461 plasma concentration: 49 and 52 and 48
[2]; 100 mg/m2, Time 72, individual patients
  Day 1 CX-5461 plasma concentration: 28 and 33.5 and 33.8
[2]; 150 mg/m2, Time 0, individual patients
  Day 1 CX-5461 plasma concentration: 415 and 821
[2]; 150 mg/m2, Time 24, individual patients
  Day 1 CX-5461 plasma concentration: 176 and 102 and 165 and 350
[2]; 150 mg/m2, Time 48, individual patients
  Day 1 CX-5461 plasma concentration: 135 and 49 and 101 and 265
[2]; 150 mg/m2, Time 72, individual patients
  Day 1 CX-5461 plasma concentration: 90.2 and 31.2 and 92.6 and 180
[2]; 200 mg/m2, Time 0, individual patients
  Day 1 CX-5461 plasma concentration: 218 and 3210 and 1850 and 745
[2]; 200 mg/m2, Time 24, individual patients
  Day 1 CX-5461 plasma concentration: 102 and 78.2 and 124
[2]; 200 mg/m2, Time 48, individual patients
  Day 1 CX-5461 plasma concentration: 55 and 145 and 69.8 and 79.1
[2]; 200 mg/m2, Time 72, individual patients
  Day 1 CX-5461 plasma concentration: 52.5 and 43.9 and 51.7
[2]; 250 mg/m2, Time 24, individual patients
  Day 1 CX-5461 plasma concentration: 125 and 233
[2]; 250 mg/m2, Time 48, individual patients
  Day 1 CX-5461 plasma concentration: 101 and 169
[2]; 250 mg/m2, Time 72, individual patients
  Day 1 CX-5461 plasma concentration: 68 and 111
[2]; 325 mg/m2, Time 24, individual patients
  Day 1 CX-5461 plasma concentration: 160 and 193
[2]; 325 mg/m2, Time 48, individual patients
  Day 1 CX-5461 plasma concentration: 132 and 97
[2]; 325 mg/m2, Time 72, individual patients
  Day 1 CX-5461 plasma concentration: 121 and 69.4
[2]; 475 mg/m2, Time 24, individual patients
  Day 1 CX-5461 plasma concentration: 222 and 204
[2]; 475 mg/m2, Time 48, individual patients
  Day 1 CX-5461 plasma concentration: 199 and 146
[2]; 475 mg/m2, Time 72, individual patients
  Day 1 CX-5461 plasma concentration: 203 and 132
[2]; 650 mg/m2, Time 24, individual patients
  Day 1 CX-5461 plasma concentration: 255 and 361 and 196 and 161 and 173 and 233
[2]; 650 mg/m2, Time 48, individual patients
  Day 1 CX-5461 plasma concentration: 234 and 439 and 165 and 107 and 154
[2]; 650 mg/m2, Time 72, individual patients
  Day 1 CX-5461 plasma concentration: 322 and 261 and 170 and 87.5 and 137 and 154
[2]; B: 325 mg/m2, Time 24, individual patients
  Day 1 CX-5461 plasma concentration: 254 and 120 and 133 and 175
[2]; B: 325 mg/m2, Time 48, individual patients
  Day 1 CX-5461 plasma concentration: 156 and 435 and 136
[2]; B: 325 mg/m2, Time 72, individual patients
  Day 1 CX-5461 plasma concentration: 93.9 and 199 and 103
[2]; B: 475 mg/m2, Time 24, individual patients
  Day 1 CX-5461 plasma concentration: 401 and 324 and 275 and 184
[2]; B: 475 mg/m2, Time 48, individual patients
  Day 1 CX-5461 plasma concentration: 288 and 213 and 252
[2]; B: 475 mg/m2, Time 72, individual patients
  Day 1 CX-5461 plasma concentration: 187 and 199 and 113
[2]; Dose level 50 (mg/m2)
  Day 1 Cmax: 623 and 1070 and 830 and 388
  Day 8 or 15 Cmax: 616 and 1040 and 271
  Day 1 AUC: 4080 and 3310
  Day 8 or 15 AUC: 6520 and 1970 and 4580
[2]; Dose level 100 (mg/m2)
  Day 1 Cmax: 1580 and 662 and 799 and 1330
  Day 8 or 15 Cmax: 1030 and 243
  Day 1 AUC: 4870 and 3830 and 5290
  Day 8 or 15 AUC: 7780 and 8830 and 2350
[2]; Dose level 150 (mg/m2)
  Day 1 Cmax: 2370 and 1080 and 1010
  Day 8 or 15 Cmax: 1970 and 1090 and 697
  Day 1 AUC: 12000 and 19500 and 11500 and 7650
  Day 8 or 15 AUC: 18700 and 23900 and 12600
[2]; Dose level 200 (mg/m2)
  Day 1 Cmax: 265 and 3210 and 805
  Day 8 or 15 Cmax: 1560 and 170 and 2180 and 795
  Day 1 AUC: 5690 and 22300 and 12900 and 8410
  Day 8 or 15 AUC: 9650 and 2530 and 25500 and 14100
[2]; Dose level 250 (mg/m2)
  Day 1 Cmax: 867 and 2350 and 1010
  Day 8 or 15 Cmax: 1290 and 368 and 654
  Day 1 AUC: 16300 and 16100
  Day 8 or 15 AUC: 21800 and 18700
[2]; Dose level 325 (mg/m2)
  Day 1 Cmax: 938 and 960
  Day 8 or 15 Cmax: 482 and 1190
  Day 1 AUC: 12800 and 11200
  Day 8 or 15 AUC: 15200
[2]; Dose level 475 (mg/m2)
  Day 1 Cmax: 1460 and 2510
  Day 8 or 15 Cmax: 1500 and 1940
  Day 1 AUC: 17900 and 17100
  Day 8 or 15 AUC: 7410 and 31300 and 32900
[2]; Dose level 650 (mg/m2)
  Day 1 Cmax: 4290 and 1840 and 2280 and 3810 and 3180
  Day 8 or 15 Cmax: 6050 and 2790 and 2540 and 5480 and 3990
  Day 1 AUC: 29600 and 16700 and 21400
  Day 8 or 15 AUC: 48200 and 23200 and 59300 and 44400 and 13900
[2]; Dose level B: 325 (mg/m2)
  Day 1 Cmax: 1030 and 1200 and 1520
  Day 8 or 15 Cmax: 3590 and 1510 and 1240
  Day 1 AUC: 19700 and 20400 and 21500
  Day 8 or 15 AUC: 48100 and 7080 and 11700 and 7620
[2]; Dose level B: 475 (mg/m2)
  Day 1 Cmax: 2510 and 2620 and 1660 and 982 and 953
  Day 8 or 15 Cmax: 1370 and 2630 and 6800 and 1020
  Day 1 AUC: 43600 and 26400 and 23500 and 32100
  Day 8 or 15 AUC: 18300 and 14200 and 52600 and 11900 and 7800
[2]; human, plasma, intravenous, 50 mg/m2, 50 mg/m2, Time 0.5, individual patients, read-out: Day 1 CX-5461 plasma concentration
  concentration at 0.5 h: 155 ng/mL
[2]; human, plasma, intravenous, 50 mg/m2, 50 mg/m2, Time 1, individual patients, read-out: Day 1 CX-5461 plasma concentration
  concentration at 1 h: 104 ng/mL
[2]; human, plasma, intravenous, 50 mg/m2, 50 mg/m2, Time 2, individual patients, read-out: Day 1 CX-5461 plasma concentration
  concentration at 2 h: 96.5 ng/mL
[2]; human, plasma, intravenous, 50 mg/m2, 50 mg/m2, Time 4, individual patients, read-out: Day 1 CX-5461 plasma concentration
  concentration at 4 h: 74.9 ng/mL
[2]; human, plasma, intravenous, 50 mg/m2, 50 mg/m2, Time 6, individual patients, read-out: Day 1 CX-5461 plasma concentration
  concentration at 6 h: 61.6 ng/mL
[2]; human, plasma, intravenous, 50 mg/m2, 50 mg/m2, Time 24, individual patients, read-out: Day 1 CX-5461 plasma concentration
  concentration at 24 h: 40 ng/mL
